# Source: patent publication US20060039883A1, “Biologically active compounds for the modification of bodily odours” (priority 2002, published 2006)
# What was measured:
# female sticklebacks = experiment: Flow channel odour preference / mate choice experiment with sticklebacks; type: in vivo, Gasterosteus aculeatus
# Procedure: The source of sticklebacks has been described (7). The flow channel set-up to evaluate mate choice determines odour preference, as a precursor of mate choice. Water was taken from the tank of a single male per trial and used both as stimulus (after addition of peptide(s)) and control (after addition of solvent) water. Peptides were added to the bottle with stimulus water just before the experiment at a final concentration of 1 mM; this becomes diluted to 5 nM in the water column passing through the test compartment. The following nona-peptides were used, MHC specificities indicated in brackets: […] (H2-K^b); […] and AAPDNRETF (H2-D^b); SYFPEITHI and SYIPSAEKI (H2-K^d). Peptides were synthesized by solid-phase 9-fluorenylmethoxycarbonyl chemistry. In experiments using a single peptide, AAPDNRETF was used. All experiments were performed in double-blinded fashion as described. Statistical analysis was performed with JMP 4.
# The binding preferences for peptides of MHC molecules of sticklebacks are unknown; therefore synthetic peptides derived from endogenous mouse and viral proteins that are ligands for different mouse MHC molecules were used. Such peptides almost certainly appear foreign to sticklebacks irrespective of their MHC genotypes. Gravid females prefer water from a tank harbouring a male to that from a tank with fresh water (Experiment A, Table 1). Therefore, it was tested whether addition of peptide(s) to water from individual males would alter the outcome of mate choice. Gravid females were presented with water from single males with and without the addition of a mixture of five different peptides in the two columns of a flow-channel.
# human beings = experiment: Odour evaluation of paired aqueous solutions by test persons (similar or different); type: in vivo; conditions: 0.5 mM in phosphate buffered saline
# Procedure: Several individuals were asked to evaluate the odour of a number of aqueous solutions. A prototypical MHC class I peptide (SLLPAIVEL), a known ligand of the A′02xx allele, or an equimolar mixture of the corresponding amino acids (S, L, P, A, I, V, E) were added to solvent (phosphate buffered saline) at final concentrations of 0.5 mM. These solutions were offered in pairs and the test persons were asked to decide whether the two solutions smelled similar or different. The probands easily distinguish peptides from amino acids.
# [1] = Test pair Peptide vs. Amino acids
Sequence,"Time spent on side of water source 2 (female sticklebacks; Experiment B, gravid females, Fresh + 1 peptide vs Fresh + solvent, 5 nM in water column, n=24) [s]","Attractiveness of peptide in plain tank water (in words) (female sticklebacks; Experiment B, gravid females, plain tank water)","Time spent on side of water source 2 (female sticklebacks; Experiment C, gravid females, Male + 1 peptide vs Male + solvent, 5 nM, n=25) [s]","Time spent on side of water source 2 (female sticklebacks; Experiment C, gravid females, Male + 1 peptide vs Male + solvent, 5 nM, n=25, listed as one peptide) [s]","Time spent on side of water source 2 (female sticklebacks; Experiment E, non-gravid females, Male + 1 peptide vs Male + solvent, 5 nM, n=25) [s]","Preference for male water with vs without peptide (in words) (female sticklebacks; Experiment E, non-gravid fish, male water)","Excess time spent on the side of peptide-supplemented male water (female sticklebacks; gravid females, male water, excess over 300 sec) [s]",Probands scoring difference (human beings; [1]),Probands scoring difference (fraction) (human beings; [1]),Probands scoring difference (human beings; Test pair Peptide vs. Peptide),Probands scoring difference (fraction) (human beings; Test pair Peptide vs. Peptide)
"AAPDNRETF [1 peptide, synthetic nona-peptide, H2-D^b ligand; used in experiments using a single peptide]",291.8 ± 24.6,not attractive,327.7 ± 24.8,327.7 ± 24.8,308.1 ± 23.5,no preference was observed,27.7 ± 12.4,,,,
"SLLPAIVEL [Peptide, prototypical MHC class I peptide, known ligand of the A*02xx allele]",,,,,,,,13/14,(0.93),1/14,(0.07)
